What was measured:
Format in all cases: cell-based, E. coli
[1] = test system: metG.GL15; assay: Chemical complementation of growth of ligand-dependent strain metG.GL15; settings: panel of 30 additional ligands
Method: (§1) A second positive selection at block 140 was performed in order to enrich for desirable ligand-dependent strains. Library members surviving the negative selection were collected, residual penicillin was washed away, and cells were spread onto LB agar plates containing complementing chemicals. Resulting colonies were screened at block 150 for ligand-dependent growth by replica-spotting onto LB agar plates with and without complementing chemicals. Strains that grew only in the presence of chemicals were chosen for further characterization.
(§2) In this example, the ligand-dependent strains were generated for 5 essential genes (pheS, dnaN, tyrS, metG, and adk). Each ligand-dependent strain carried between 3 and 7 mutations at the targeted essential gene (Table 1). A mixture of 4 small molecules was used to generate the ligand-dependent strains. Each resulting strain was tested against each small molecule individually. The most promiscuous strain, metG.GL15, was complemented by all 4 ligands. Other mutants responded to 2 or 3 ligands. Additionally, escape frequency was measured on media lacking any of the 4 ligands. The highest escape frequency was 8×10^−4 for adk.GL1, while the lowest escape frequency was 3×10^−9 for pheS.GL2.
To characterize the specificity of the produced ligand-dependent strains towards ligands, all strains were examined for complementation by a panel of 30 additional ligands. […]

[2] = test system: rapamycin-dependent mutant (uniRapR insertion in dnaN); assay: Ligand-dependent growth of rapamycin-dependent dnaN-uniRapR insertion mutant at 42° C.; settings: for nonspecific chemical complementation (growth): plates with ligand instead of rapamycin
Excerpt: Starting with a plasmid borne copy of wild type dnaN under constitutive expression, the uniRapR domain was inserted into 4 candidate insertion sites with a 3 amino acid linker library upstream and downstream of the uniRapR domain. The resulting libraries (all four insertion sites with their linker libraries) were pooled and transformed into a strain of E. coli with a mutation on the genomic copy of dnaN that made the protein temperature sensitive (dnaN protein from genome is non-functional at 42° C. and it is bactericidal lethal).
The transformants were grown at 42° C. (lethal temperature for genomic copy so as to force bacteria to rely on the plasmid copies with the uniRapR insertions) as well as with the addition of 10 uM rapamycin (to complement the function of any rapamycin-dependent insertional fusion dnaN mutants) and allowed to grow overnight.
The extracted plasmid DNA was re-transformed into fresh dnaN-temperature sensitive strains and grown on LB agar supplemented with rapamycin at 42° C. The next day colonies were picked and re-spotted onto LB agar plates with or without rapamycin and grown at 42° C. […] The biological replicates of a 10-fold serial dilution of the rapamycin-dependent mutant grown without rapamycin (clear columns) or with 2.5 micromolar rapamycin (columns with growth) were prepared. All growth took place at 42° C.

[3] = test system: pheS.GL2; assay: Chemical complementation of growth of ligand-dependent strain pheS.GL2; settings: LB agar plates
Method: as §1, §2
The ligand-dependent strain pheS.GL2 was derived from a directed evolution procedure using both targeted and random mutagenesis. […]

[4] = test system: dnaN-intein-iFKBP fusion mutants; assay: Growth of dnaN-intein-iFKBP mutants with complementing ligands at 42° C.; settings: LB agar
Method: A variety of saturation mutagenesis libraries targeting a combination of surface exposed and semi-buried residues on the intein structure were then designed, ignoring the iFKBP domain as well as the dnaN sequence. The resulting plasmid library was then transformed into dnaN-temperature sensitive strains (dnaN-temp sensitive on the genome). The resulting transformants were grown on LB agar plates containing 5 chemicals: rapamycin, saccharin, acetaminophen, raspberry ketone, and benzothiazole. These chemicals were chosen based on being either useful commercially or likely to result in the desired phenotype. As before the library was grown at 42° C. so that the strains would have to rely on the plasmid borne mutagenized copies of the dnaN-intein-iFKBP fusion proteins.
The next day the libraries were scraped, and transferred to fresh media for a penicillin technique counter selection performed exactly as described before with FIG. 2 and FIG. 3. After the negative selection, intact cells were mini-prepped and the DNA was re-transformed into fresh cells and the transformants were grown on the same chemicals as indicated above at 42° C.
The next day, colonies were picked, serially diluted tenfold and spotted onto plain LB agar plates and LB agar plates containing a pool of candidate complementing ligands and grown at 42° C. (to uncover phenotype of plasmid born copy of dnaN). […]

[5] = test system: tyrS.GL7; assay: Chemical complementation of growth of ligand-dependent strain tyrS.GL7
Method: as §1, §2
The ligand-dependent strain tyrS.GL7 and metG.GL15 were generated in under 2 weeks with a single cycle of protein engineering. […]

O=C(O)Cc1c[nH]c2ccccc12 [Indole-3-acetic acid]
complementation of growth [1]: complement

COC(=O)[C@@H](N)Cc1c[nH]cn1 [L-histidine methyl ester]
complementation of growth [1]: complement

c1ccc2scnc2c1 [benzothiazole]
nonspecific chemical complementation (growth) [2]: no growth was detected | complementation of growth ([3]; 1 mM benzothiazole): strongly complemented | colony size relative to no ligand (by eye) [4]: 2-5 times | concentration range of dose-dependent growth [5]: 250 to 1000 µM

c1ccc2[nH]ccc2c1 [indole]
nonspecific chemical complementation (growth) [2]: no growth was detected | complementation of growth ([3]; 0.5 mM indole): strongly complemented | complementation of growth [5]: complemented

CO[C@H]1C[C@@H]2CC[C@@H](C)[C@@](O)(O2)C(=O)C(=O)N2CCCC[C@H]2C(=O)O[C@H]([C@H](C)C[C@@H]2CC[C@@H](O)[C@H](OC)C2)CC(=O)[C@H](C)/C=C(\C)[C@@H](O)[C@@H](OC)C(=O)[C@H](C)C[C@H](C)/C=C/C=C/C=C/1C [rapamycin]
rapamycin concentration of highest activity (dose-dependent growth) ([2]; 42° C.): 1 to 10 µM

Source: US11225657B2, “Synthetic auxotrophs with ligand dependent essential genes for biosafety” (priority 2015, dated 2022)
